According to paper PMC6751206, “Epigenetic re-wiring of breast cancer by pharmacological targeting of C-terminal binding protein” (Cell Death & Disease, 2019):
pIC50: −log10 of the molar value.

What was measured:
CtBP1/CtBP2 heterodimer [1] = molecular target: T1, CtBP1/CtBP2 heterodimer (Homo sapiens, UniProt P56545+Q13363); experiment: acceptor photobleaching FRET of CtBP1/CtBP2 dimerization in MDA-MB-231 cells; format: cell-based; details: 10 μM compound; live-cell heterodimerization read-out
T1 construct: CFP/YFP fusions of CtBP1 and CtBP2 (pSCFP3A, pSYFP2); heterodimer

CtBP1/CtBP2 heterodimer [2] = molecular target: T1, CtBP1/CtBP2 heterodimer; experiment: as above; format: cell-based; details: live-cell heterodimerization read-out; dose-response

SMILES: O=C(O)C(=O)Nc1ccccc1 [CI22]
- FRET signal decrease at 10 μM (CtBP1/CtBP2 heterodimer [1]): significant decrease in the paired CtBP1-YFP/CtBP2-CFP FRET signal, after incubation with CI19, CI22, CI23 or CI24

SMILES: Nc1nc(C(=O)C(=O)O)cs1 [CI24]
- pIC50 (CtBP1/CtBP2 heterodimer [2]): 4.70 to 5.00

SMILES: CC(C)C(NC(=O)C(=O)O)C(=O)O (stereo not drawn) [CI19]
- FRET signal decrease at 10 μM (CtBP1/CtBP2 heterodimer [1]): significant decrease in the paired CtBP1-YFP/CtBP2-CFP FRET signal, after incubation with CI19, CI22, CI23 or CI24
